Data as given in PMC6742641, “Design, synthesis and biological evaluation of a series of CNS penetrant HDAC inhibitors structurally derived from amyloid-β probes” (Scientific Reports, 2019).
Where two headings read alike, the source gives them in different places. Values belong to the compound of their own block, whether it stands above or below them.

Experiments:
SH-SY5Y cells = test: Cell proliferation (anti-proliferation) assay, MTS; format: cell-based, human; details: for GI50 / IC50: Homo sapiens; for GI50: SH-SY5Y neuroblastoma cell line, 72 h, mean ± SD (n = 4); for IC50: read-out: anti-proliferative activity IC50 against SH-SY5Y cell line
Procedure: SH-SY5Y cells were grown in DMEM with L-glutamin supplemented with streptomycin ([…]), penicillin (100 units/mL), and 10% fetal bovine serum (FBS). Cells were grown to confluence in a humidified atmosphere (37 °C, 5% CO2).
SH-SY5Y cells (1.5 × 10^3 cells/well) were seeded in a clear 96-well plate, the medium volume was brought to 100 µL, and the cells were allowed to attach overnight. The next day, various concentrations of compounds or DMSO were added to the wells. Cells were then incubated at 37 °C for 24, 48 and 72 h. Cell viability was determined using the Promega Cell Titer 96 Aqueous One Solution cell proliferation assay. Absorbance at 490 nm was read on Tecan Infinite F200 Pro plate reader, and values were expressed as percent of absorbance from cells incubated in DMSO alone.

PAMPA-BBB assay = format: in vitro ADME; details: for Papp at 4 h, 25 μM: PAMPA, read-out: Pe
Procedure: BBB-PAMPA was conducted by manufacturer’s instruction (pION Inc, MA, USA). […] Transmembrane side to donor part was coated with BBB lipid solution and add 200 μL acceptor buffer in upper part of PAMPA sandwich plate.

[1] = In vivo brain pharmacokinetic study; details: ICR male mice, IV, 2 mg/kg
Procedure: The study was approved by the Institutional Animal Care and Use of Committee of Daegu-Gyeongbuk Medical Innovation Foundation (DGMIF) and performed in accordance with protocols approved by the Institutional Animal Care and Use of Committee. […] Brain and plasma samples were collected at 0.5 and 1 h time points. Brain samples were homogenized at a 1:4 ratio of sample weight (g) to PBS volume (mL). Aliquots (20 μL) of brain homogenate were mixed with 180 μL of acetonitrile, vortexed and centrifuged at 15,000 rpm for 5 minutes at 4 °C. The resulting supernatants were used for LC-MS/MS analysis. Mice plasma samples were collected at 0.5 and 1 h time points. 180 μL of acetonitrile was added to 20 μL of plasma samples, vortexed and centrifuged at 15,000 rpm for 5 minutes at 4 °C.

Ac-α-tubulin = test: Western blot of acetylation status in SH-SY5Y cells; format: cell-based, human; details: 24 h, 1 μM
Procedure: Cells were seeded in 100 mm culture dishes (1 × 10^6 cells/dish), and allowed to attach overnight. Inhibitors were added at the concentrations as indicated and the cells were incubated for an additional 24 hours. For comparison, cells were also incubated with DMSO (0.5%) for 24 hours. Cells were harvested in ice-cold lysis buffer (23 mM Tris-HCl pH 7.6, 130 mM NaCl, 1% NP-40, 1% sodium deoxycholate, 0.1% SDS), and 30 µg of lysate per lane was separated by SDS-PAGE and followed by transferring to a PVDF membrane (Bio-Rad). The membrane was blocked with 5% skim milk in TBST, and then incubated with the corresponding antibody (Ac-α-tubulin, α-tubulin, Ac-Histone H3, Histone H3 or β-actin). After binding of an appropriate secondary antibody coupled to horseradish peroxidase, proteins were visualized by ECL chemiluminescence according to the instructions of the manufacturer (GE healthcare, USA).

[2] = 25 μM, pH 7.4, 4 h, 25 °C, mean ± SD, three independent experiments

- GI50 (SH-SY5Y cells): 58.3 ± 10.8 µM
Structure (SMILES): Cn1c(-c2ccc(C(=O)NO)cc2)nc2ccccc21 [Compound 6a]

- GI50 (SH-SY5Y cells): 26.8 ± 1.35 µM
- IC50 (SH-SY5Y cells; SH-SY5Y, Table 1 values IC50): 26.8 µM
Structure (SMILES): CCCCn1c(-c2ccc(C(=O)NO)cc2)nc2ccccc21 [Compound 6d]
- fold increase in potency from non-substituted analogue 5 (SH-SY5Y cells; SH-SY5Y): ~2 fold

- GI50 (SH-SY5Y cells): 34.6 ± 0.6 µM
Structure (SMILES): CCCn1c(-c2cccc(C(=O)NO)c2)nc2ccccc21 [Compound 14c]

- CNS +/− classification (PAMPA-BBB assay; PAMPA-BBB): CNS + (CNS + indicates (Pe > 10))
- Papp at 4 h, 25 μM (PAMPA-BBB assay; [2]): 35.52 ± 0.33 ×10⁻⁶ cm/s
Structure (SMILES): CC(=O)[C@H]1CC[C@H]2[C@@H]3CCC4=CC(=O)CC[C@]4(C)[C@H]3CC[C@]12C [Progesterone]

- GI50 (SH-SY5Y cells): 17.5 ± 0.35 µM
Structure (SMILES): O=C(NO)c1cccc(-c2nc3ccccc3o2)c1 [Compound 17a]

- GI50 (SH-SY5Y cells): 60 ± 1.5 µM
- IC50 (SH-SY5Y cells; SH-SY5Y, Table 1 values IC50): 60 µM
Structure (SMILES): O=C(NO)c1ccc(-c2nc3ccccc3[nH]2)cc1 [Compound 5]

- GI50 (SH-SY5Y cells): 25.7 ± 0.05 µM
- IC50 (SH-SY5Y cells; SH-SY5Y, Table 1 values IC50): 25.7 µM
Structure (SMILES): O=C(NO)c1ccc(-c2nc3ccccc3o2)cc1 [Compound 9a]
- fold less potent anti-proliferative activity than compound 9b (SH-SY5Y cells; SH-SY5Y): 12 fold

- GI50 (SH-SY5Y cells): 38.1 ± 0.2 µM
Structure (SMILES): CCn1c(-c2ccc(C(=O)NO)cc2)nc2ccccc21 [Compound 6b]

- GI50 (SH-SY5Y cells): 28.2 ± 0.75 µM
Structure (SMILES): CCn1c(-c2cccc(C(=O)NO)c2)nc2ccccc21 [Compound 14b]

- GI50 (SH-SY5Y cells): > 100 µM
Structure (SMILES): O=C(NO)c1cccc(-c2nc3ccccc3[nH]2)c1 [Compound 13]

- GI50 (SH-SY5Y cells): > 100 µM
Structure (SMILES): Cn1c(-c2cccc(C(=O)NO)c2)nc2ccccc21 [Compound 14a]

- GI50 (SH-SY5Y cells): 21.4 ± 1.65 µM
Structure (SMILES): O=C(NO)c1cccc(-c2nc3ccccc3s2)c1 [Compound 17b]

- GI50 (SH-SY5Y cells): 20.7 ± 1 µM
Structure (SMILES): CCCCn1c(-c2cccc(C(=O)NO)c2)nc2ccccc21 [Compound 14d]

- Brain concentration (ng/mL) 0.5 h ([1]; 0.5 h, n = 4): 14.5 ± 2.8 ng/mL
- Brain concentration (ng/mL) 1 h ([1]; 1 h, n = 4): BQL
- Kp at 0.5 h ([1]; mouse, brain/plasma, 0.5 h, read-out: Brain/plasma ratio 0.5 h): 0.4
- concentration at 0.5 h ([1]; mouse, brain, 0.5 h, n = 4, read-out: Brain concentration (ng/mL) 0.5 h): 14.5 ng/mL
- concentration at 0.5 h ([1]; mouse, plasma, 0.5 h, n = 4, read-out: Plasma concentration (ng/mL) 0.5 h): 39.2 ± 11.5 ng/mL
- concentration at 1 h ([1]; mouse, plasma, 1 h, n = 4, read-out: Plasma concentration (ng/mL) 1 h): 4.5 ± 2.7 ng/mL
- IC50 (SH-SY5Y cells; SH-SY5Y): 2.9 µM
- GI50 (SH-SY5Y cells): 2.9 ± 0.28 µM
- Pe (10^−6 cm/s) (PAMPA-BBB assay; [2]): 2.77 10^−6 cm/s
- Papp at 4 h, 25 μM (PAMPA-BBB assay; [2]): 2.77 ± 0.05 ×10⁻⁶ cm/s
Structure (SMILES): O=C(CCCCCCC(=O)Nc1ccccc1)NO [SAHA, suberoylanilide hydroxamic acid, reference compound]
- acetylation of α-tubulin at 1 μM, SAHA versus 9b (Ac-α-tubulin): induced more acetylation of α-tubulin than compound 9b

- GI50 (SH-SY5Y cells): 54.7 ± 0.95 µM
Structure (SMILES): CCCn1c(-c2ccc(C(=O)NO)cc2)nc2ccccc21 [Compound 6c]
